Columns and labels:
Assay in all cases: KINOMEscan
Assay type in all cases: binding
[1] = target: T1, ABL1 (Q252H)-non-P (Homo sapiens, UniProt P00519, Q252H)
T1 construct: purchased Eurofins DiscoverX KINOMEscan
Summary of the method: (§1)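 Compound and kinase were incubated at room temperature for 1 h, the free kinase fraction was captured with an immobilized affinity ligand, and capture was quantified by quantitative PCR; Kd values used a 12-point half-log series up to 33 μM.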

[2] = target: T2, AKT1 (Homo sapiens, UniProt P31749)
T2 construct: purchased Eurofins DiscoverX KINOMEscan
Summary of the method: (§2)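 Measured as Kd. Free kinase after 1 h at room temperature was captured on immobilized ligand and detected by qPCR; compound titrated in 12 half-log steps from 33 μM.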

[3] = target: T3, BMPR1A (Homo sapiens, UniProt P36894)
T3 construct: purchased Eurofins DiscoverX KINOMEscan
Summary of the method: as §1

[4] = target: T4, BMPR1B (Homo sapiens, UniProt O00238)
T4 construct: purchased Eurofins DiscoverX KINOMEscan
Summary of the method: as §1

[5] = target: T5, BMPR2 (Homo sapiens, UniProt Q13873)
T5 construct: purchased Eurofins DiscoverX KINOMEscan
Summary of the method: as §1

[6] = target: T6, BUB1 (Homo sapiens, UniProt O43683)
T6 construct: purchased Eurofins DiscoverX KINOMEscan
Summary of the method: as §2

[7] = target: T7, CAMK2A (Homo sapiens, UniProt Q9UQM7)
T7 construct: purchased Eurofins DiscoverX KINOMEscan
Summary of the method: as §1

[8] = target: T8, CAMK2D (Homo sapiens, UniProt Q13557)
T8 construct: purchased Eurofins DiscoverX KINOMEscan
Summary of the method: as §1

[9] = target: T9, CDK4 (Homo sapiens, UniProt P11802)
T9 construct: purchased Eurofins DiscoverX KINOMEscan
Summary of the method: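 Binding reactions proceed for 1 h at room temperature. Kinase not bound by compound is captured on immobilized affinity ligand and quantified by qPCR; Kd is fitted over 12 half-log concentrations, top 33 μM.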

[10] = target: T10, CDK5 (Homo sapiens, UniProt Q00535)
T10 construct: purchased Eurofins DiscoverX KINOMEscan
T10 sequence (Q00535 whole entry): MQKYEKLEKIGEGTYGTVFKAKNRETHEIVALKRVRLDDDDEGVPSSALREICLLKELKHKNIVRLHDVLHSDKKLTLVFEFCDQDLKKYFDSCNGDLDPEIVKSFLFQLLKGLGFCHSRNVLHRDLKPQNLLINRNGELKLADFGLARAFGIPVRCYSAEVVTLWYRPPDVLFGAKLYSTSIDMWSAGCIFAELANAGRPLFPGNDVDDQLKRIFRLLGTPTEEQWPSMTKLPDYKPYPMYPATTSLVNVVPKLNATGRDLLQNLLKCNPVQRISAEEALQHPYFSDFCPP
Summary of the method: as §1

[11] = target: T11, CLK1 (Homo sapiens, UniProt P49759)
T11 construct: purchased Eurofins DiscoverX KINOMEscan
T11 sequence (P49759 whole entry): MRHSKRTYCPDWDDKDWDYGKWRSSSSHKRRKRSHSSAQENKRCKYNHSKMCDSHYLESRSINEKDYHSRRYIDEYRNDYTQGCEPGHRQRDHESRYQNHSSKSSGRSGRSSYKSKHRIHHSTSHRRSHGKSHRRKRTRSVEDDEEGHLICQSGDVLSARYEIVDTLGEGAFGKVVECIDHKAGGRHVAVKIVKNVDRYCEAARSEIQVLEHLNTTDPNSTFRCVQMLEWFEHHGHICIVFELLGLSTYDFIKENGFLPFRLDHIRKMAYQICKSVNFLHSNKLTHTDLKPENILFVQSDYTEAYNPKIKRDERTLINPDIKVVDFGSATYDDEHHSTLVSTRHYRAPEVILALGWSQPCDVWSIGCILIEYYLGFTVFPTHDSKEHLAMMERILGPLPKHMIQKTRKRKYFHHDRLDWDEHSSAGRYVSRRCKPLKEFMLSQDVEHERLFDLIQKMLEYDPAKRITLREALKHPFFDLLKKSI
Summary of the method: as §2

[12] = target: T12, CLK4 (Homo sapiens, UniProt Q9HAZ1)
T12 construct: purchased Eurofins DiscoverX KINOMEscan
Summary of the method: as §2

[13] = target: T13, CSK (Homo sapiens, UniProt P41240)
T13 construct: purchased Eurofins DiscoverX KINOMEscan
Summary of the method: as §1

[14] = target: T14, CSNK1A1 (Homo sapiens, UniProt P48729)
T14 construct: purchased Eurofins DiscoverX KINOMEscan
T14 sequence (P48729 whole entry): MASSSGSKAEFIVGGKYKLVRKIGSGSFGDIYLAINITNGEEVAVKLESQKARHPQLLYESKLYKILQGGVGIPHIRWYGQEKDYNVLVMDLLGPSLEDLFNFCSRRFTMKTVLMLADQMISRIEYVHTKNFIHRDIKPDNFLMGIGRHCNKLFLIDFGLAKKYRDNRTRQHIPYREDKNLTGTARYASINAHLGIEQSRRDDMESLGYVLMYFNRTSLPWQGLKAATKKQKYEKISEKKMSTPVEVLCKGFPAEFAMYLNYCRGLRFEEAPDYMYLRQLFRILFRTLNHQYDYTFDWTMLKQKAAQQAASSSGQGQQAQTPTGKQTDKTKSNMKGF
Summary of the method: as §1

[15] = target: T15, CSNK1G2 (Homo sapiens, UniProt P78368)
T15 construct: purchased Eurofins DiscoverX KINOMEscan
Summary of the method: as §1

[16] = target: T16, DMPK2 (Homo sapiens, UniProt Q6DT37)
T16 construct: purchased Eurofins DiscoverX KINOMEscan
T16 sequence (Q6DT37 whole entry): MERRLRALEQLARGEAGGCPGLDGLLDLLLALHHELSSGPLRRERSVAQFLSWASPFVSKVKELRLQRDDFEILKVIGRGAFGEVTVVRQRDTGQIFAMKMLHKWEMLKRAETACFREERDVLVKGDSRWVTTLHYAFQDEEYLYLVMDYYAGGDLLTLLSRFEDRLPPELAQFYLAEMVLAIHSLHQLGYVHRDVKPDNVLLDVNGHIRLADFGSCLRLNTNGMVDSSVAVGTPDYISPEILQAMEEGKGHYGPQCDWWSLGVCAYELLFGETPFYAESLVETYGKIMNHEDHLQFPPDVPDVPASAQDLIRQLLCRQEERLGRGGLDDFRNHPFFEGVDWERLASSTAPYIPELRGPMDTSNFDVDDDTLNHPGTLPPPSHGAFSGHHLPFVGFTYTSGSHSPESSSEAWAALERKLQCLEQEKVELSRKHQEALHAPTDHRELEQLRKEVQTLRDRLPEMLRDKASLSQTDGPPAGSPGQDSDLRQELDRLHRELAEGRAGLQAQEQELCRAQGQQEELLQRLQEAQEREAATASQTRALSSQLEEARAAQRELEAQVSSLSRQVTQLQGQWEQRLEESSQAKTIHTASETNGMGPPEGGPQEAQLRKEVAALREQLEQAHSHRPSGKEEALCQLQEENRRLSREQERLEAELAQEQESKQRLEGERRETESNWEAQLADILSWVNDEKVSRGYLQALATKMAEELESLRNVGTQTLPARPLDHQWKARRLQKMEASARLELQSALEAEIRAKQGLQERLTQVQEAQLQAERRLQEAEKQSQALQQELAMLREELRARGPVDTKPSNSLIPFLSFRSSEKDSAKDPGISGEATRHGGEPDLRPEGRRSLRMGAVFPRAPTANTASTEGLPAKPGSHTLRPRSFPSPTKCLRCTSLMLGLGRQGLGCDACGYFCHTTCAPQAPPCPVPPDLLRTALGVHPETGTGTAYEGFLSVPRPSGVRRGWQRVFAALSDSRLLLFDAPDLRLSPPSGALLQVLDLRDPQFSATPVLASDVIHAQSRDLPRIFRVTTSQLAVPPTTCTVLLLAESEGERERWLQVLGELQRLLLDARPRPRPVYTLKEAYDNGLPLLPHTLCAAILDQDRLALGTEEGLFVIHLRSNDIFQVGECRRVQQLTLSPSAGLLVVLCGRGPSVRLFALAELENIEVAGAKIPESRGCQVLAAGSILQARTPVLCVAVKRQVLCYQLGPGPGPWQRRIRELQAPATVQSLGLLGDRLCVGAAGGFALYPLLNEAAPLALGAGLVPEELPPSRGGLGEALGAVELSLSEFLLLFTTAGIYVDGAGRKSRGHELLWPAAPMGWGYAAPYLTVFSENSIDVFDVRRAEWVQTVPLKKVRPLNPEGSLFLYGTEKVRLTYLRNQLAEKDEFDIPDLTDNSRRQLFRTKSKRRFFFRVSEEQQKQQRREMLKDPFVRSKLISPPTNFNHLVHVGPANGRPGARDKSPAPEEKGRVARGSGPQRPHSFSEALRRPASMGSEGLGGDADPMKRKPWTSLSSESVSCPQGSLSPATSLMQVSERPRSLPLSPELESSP
Summary of the method: as §1

[17] = target: T17, DRAK1 (Homo sapiens, UniProt Q9UEE5)
T17 construct: purchased Eurofins DiscoverX KINOMEscan
Summary of the method: as §1

[18] = target: T18, ERBB4 (Homo sapiens, UniProt Q15303)
T18 construct: purchased Eurofins DiscoverX KINOMEscan
Summary of the method: as §2

[19] = target: T19, ERK5 (Homo sapiens, UniProt Q13164)
T19 construct: purchased Eurofins DiscoverX KINOMEscan
Summary of the method: as §1

[20] = target: T20, GAK (Homo sapiens, UniProt O14976)
T20 construct: purchased Eurofins DiscoverX KINOMEscan
Summary of the method: as §1

[21] = target: T21, GSK3B (Homo sapiens, UniProt P49841)
T21 construct: purchased Eurofins DiscoverX KINOMEscan
Summary of the method: as §2

[22] = target: T22, IKK-α (Homo sapiens, UniProt O15111)
T22 construct: purchased Eurofins DiscoverX KINOMEscan
T22 sequence (O15111 whole entry): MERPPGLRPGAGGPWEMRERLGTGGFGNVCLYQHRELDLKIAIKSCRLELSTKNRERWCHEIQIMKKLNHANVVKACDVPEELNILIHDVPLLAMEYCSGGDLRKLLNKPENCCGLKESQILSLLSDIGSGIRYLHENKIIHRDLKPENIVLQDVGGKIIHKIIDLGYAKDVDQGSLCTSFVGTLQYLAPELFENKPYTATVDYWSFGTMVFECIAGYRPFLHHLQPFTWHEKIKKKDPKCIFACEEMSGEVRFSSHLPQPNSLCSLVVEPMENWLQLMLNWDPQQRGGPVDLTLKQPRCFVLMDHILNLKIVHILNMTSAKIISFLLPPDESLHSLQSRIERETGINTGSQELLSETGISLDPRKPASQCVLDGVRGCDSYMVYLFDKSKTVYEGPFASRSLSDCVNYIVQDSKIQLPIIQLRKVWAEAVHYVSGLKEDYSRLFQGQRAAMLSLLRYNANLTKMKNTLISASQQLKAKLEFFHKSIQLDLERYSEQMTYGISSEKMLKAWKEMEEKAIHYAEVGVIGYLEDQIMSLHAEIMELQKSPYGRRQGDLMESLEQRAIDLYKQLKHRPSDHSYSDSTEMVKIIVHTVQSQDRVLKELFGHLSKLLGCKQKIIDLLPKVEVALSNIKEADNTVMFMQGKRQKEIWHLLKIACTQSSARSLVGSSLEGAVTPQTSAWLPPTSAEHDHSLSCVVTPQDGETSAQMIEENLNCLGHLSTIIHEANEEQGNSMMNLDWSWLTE
Summary of the method: as §2

[23] = target: T23, JNK2 (Homo sapiens, UniProt P45984)
T23 construct: purchased Eurofins DiscoverX KINOMEscan
Summary of the method: as §1

[24] = target: T24, LATS1 (Homo sapiens, UniProt O95835)
T24 construct: purchased Eurofins DiscoverX KINOMEscan
Summary of the method: as §1

[25] = target: T25, LIMK2 (Homo sapiens, UniProt P53671)
T25 construct: purchased Eurofins DiscoverX KINOMEscan
Summary of the method: as §1

[26] = target: T26, MAPKAPK2 (Homo sapiens, UniProt P49137)
T26 construct: purchased Eurofins DiscoverX KINOMEscan
T26 sequence (P49137 whole entry): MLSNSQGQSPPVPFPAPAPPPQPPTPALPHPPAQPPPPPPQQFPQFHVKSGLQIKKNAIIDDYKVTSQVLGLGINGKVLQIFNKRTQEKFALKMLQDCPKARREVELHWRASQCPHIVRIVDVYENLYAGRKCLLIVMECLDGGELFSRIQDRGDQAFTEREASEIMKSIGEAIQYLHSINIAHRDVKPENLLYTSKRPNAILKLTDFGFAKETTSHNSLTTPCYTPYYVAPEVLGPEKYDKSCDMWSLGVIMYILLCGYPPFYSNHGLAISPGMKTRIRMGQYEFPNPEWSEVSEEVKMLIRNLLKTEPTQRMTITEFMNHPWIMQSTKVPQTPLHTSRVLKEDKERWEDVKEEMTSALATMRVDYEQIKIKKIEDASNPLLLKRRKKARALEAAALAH
Summary of the method: as §1

[27] = target: T27, MST1 (Homo sapiens, UniProt Q13043)
T27 construct: purchased Eurofins DiscoverX KINOMEscan
Summary of the method: as §1

[28] = target: T28, OSR1 (Homo sapiens, UniProt O95747)
T28 construct: purchased Eurofins DiscoverX KINOMEscan
T28 sequence (O95747 whole entry): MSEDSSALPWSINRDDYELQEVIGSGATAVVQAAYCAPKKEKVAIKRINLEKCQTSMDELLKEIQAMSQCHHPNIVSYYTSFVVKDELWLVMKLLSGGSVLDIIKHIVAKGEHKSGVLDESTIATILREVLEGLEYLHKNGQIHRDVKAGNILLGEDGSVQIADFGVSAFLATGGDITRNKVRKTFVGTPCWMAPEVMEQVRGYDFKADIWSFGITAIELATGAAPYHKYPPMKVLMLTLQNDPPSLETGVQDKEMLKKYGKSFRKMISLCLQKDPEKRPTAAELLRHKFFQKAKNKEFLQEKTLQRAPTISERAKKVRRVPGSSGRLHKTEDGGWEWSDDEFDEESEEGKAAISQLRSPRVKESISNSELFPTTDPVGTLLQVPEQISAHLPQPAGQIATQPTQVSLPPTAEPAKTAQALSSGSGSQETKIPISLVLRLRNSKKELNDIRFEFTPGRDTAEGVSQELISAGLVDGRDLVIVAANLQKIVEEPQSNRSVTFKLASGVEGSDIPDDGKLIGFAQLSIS
Summary of the method: as §1

[29] = target: T29, PAK2 (Homo sapiens, UniProt Q13177)
T29 construct: purchased Eurofins DiscoverX KINOMEscan
T29 sequence (Q13177 whole entry): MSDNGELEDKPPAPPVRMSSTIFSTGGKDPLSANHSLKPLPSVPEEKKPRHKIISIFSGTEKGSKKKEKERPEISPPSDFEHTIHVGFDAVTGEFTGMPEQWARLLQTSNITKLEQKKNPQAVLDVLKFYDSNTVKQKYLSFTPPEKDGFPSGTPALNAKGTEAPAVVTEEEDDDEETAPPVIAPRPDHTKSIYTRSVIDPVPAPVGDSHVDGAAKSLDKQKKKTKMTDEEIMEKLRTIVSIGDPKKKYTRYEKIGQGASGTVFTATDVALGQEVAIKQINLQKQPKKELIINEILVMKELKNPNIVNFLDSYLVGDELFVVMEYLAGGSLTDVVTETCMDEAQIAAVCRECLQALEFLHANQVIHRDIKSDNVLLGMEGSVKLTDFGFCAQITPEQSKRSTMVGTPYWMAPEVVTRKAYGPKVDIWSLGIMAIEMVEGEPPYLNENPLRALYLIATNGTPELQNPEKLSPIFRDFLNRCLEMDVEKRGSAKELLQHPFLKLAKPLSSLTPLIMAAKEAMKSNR
Summary of the method: as §2

[30] = target: T30, PAK3 (Homo sapiens, UniProt O75914)
T30 construct: purchased Eurofins DiscoverX KINOMEscan
Summary of the method: as §1

[31] = target: T31, PIK3CA (C420R) (Homo sapiens, UniProt P42336, C420R)
T31 construct: purchased Eurofins DiscoverX KINOMEscan
Summary of the method: as §1

[32] = target: T32, PRKG2 (Homo sapiens, UniProt Q13237)
T32 construct: purchased Eurofins DiscoverX KINOMEscan
Summary of the method: as §2

[33] = target: T33, RSK2 (Kin. Dom.1-N-term.) (Homo sapiens, UniProt P51812)
T33 construct: RSK2 (Kin. Dom.1-N-term.); purchased Eurofins DiscoverX KINOMEscan
Summary of the method: as §1

[34] = target: T34, RSK4 (Kin. Dom.1-N-term.) (Homo sapiens, UniProt Q9UK32)
T34 construct: RSK4 (Kin. Dom.1-N-term.); purchased Eurofins DiscoverX KINOMEscan
Summary of the method: as §2

[35] = target: T35, SGK (Homo sapiens, UniProt O00141)
T35 construct: purchased Eurofins DiscoverX KINOMEscan
Summary of the method: as §1

[36] = target: T36, SIK2 (Homo sapiens, UniProt Q9H0K1)
T36 construct: purchased Eurofins DiscoverX KINOMEscan
Summary of the method: as §1

[37] = target: T37, SgK110 (Homo sapiens, UniProt P0C264)
T37 construct: purchased Eurofins DiscoverX KINOMEscan
Summary of the method: as §2

[38] = target: T38, TYRO3 (Homo sapiens, UniProt Q06418)
T38 construct: purchased Eurofins DiscoverX KINOMEscan
Summary of the method: as §1

[39] = target: T39, ULK3 (Homo sapiens, UniProt Q6PHR2)
T39 construct: purchased Eurofins DiscoverX KINOMEscan
Summary of the method: as §2

## O=C1Nc2c(cc([N+](=O)[O-])c3c2CCCC3)C1=NO [Compound 5d, 3-(Hydroxyimino)-5-nitro-1,3,6,7,8,9-hexahydro-2H-benzo[g]indol-2-one]
[1]
  inhibition at 10 µM: 55%
[2]
  inhibition at 10 µM: 10%
[3]
  inhibition at 10 µM: 18%
[4]
  inhibition at 10 µM: 19%
[5]
  inhibition at 10 µM: 64%
[6]
  inhibition at 10 µM: 95.6%
[7]
  inhibition at 10 µM: 71%
[8]
  inhibition at 10 µM: 51%
[9]
  inhibition at 10 µM: 7%
[10]
  inhibition at 10 µM: 1%
[11]
  inhibition at 10 µM: 85%
[12]
  inhibition at 10 µM: 93.9%
[13]
  inhibition at 10 µM: 21%
[14]
  inhibition at 10 µM: 93.5%
[15]
  inhibition at 10 µM: 90%
[16]
  inhibition at 10 µM: 3%
[17]
  inhibition at 10 µM: 76%
[18]
  inhibition at 10 µM: 4%
[19]
  inhibition at 10 µM: 0%
[20]
  inhibition at 10 µM: 49%
[21]
  inhibition at 10 µM: 29%
[22]
  inhibition at 10 µM: 52%
[23]
  inhibition at 10 µM: 49%
[24]
  inhibition at 10 µM: 0%
[25]
  inhibition at 10 µM: 0%
[26]
  inhibition at 10 µM: 9%
[27]
  inhibition at 10 µM: 32%
[28]
  inhibition at 10 µM: 25%
[29]
  inhibition at 10 µM: 41%
[30]
  inhibition at 10 µM: 67%
[31]
  inhibition at 10 µM: 0%
[32]
  inhibition at 10 µM: 6%
[33]
  inhibition at 10 µM: 81%
[34]
  inhibition at 10 µM: 77%
[35]
  inhibition at 10 µM: 91.1%
[36]
  inhibition at 10 µM: 7%
[37]
  inhibition at 10 µM: 0%
[38]
  inhibition at 10 µM: 18%
[39]
  inhibition at 10 µM: 55%

— article PMC12300041, “Tricyclic Isatin Derivatives as Anti-Inflammatory Compounds with High Kinase Binding Affinity” (Molecules, 2025)
